Experiments:
blood glucose = assay: hypoglycaemic activity: reduction in area under blood glucose curve after glucose load in fasted mice; format: in vivo, female CFLP mice; conditions: for inhibition in vivo at 5 mg/kg: Mus musculus, po, 2 h; for anti-hyperglycaemic activity (in words): general statement, no dose given
Method: Female CFLP mice, weighing approximately 25 g, were fasted for 24 hours prior to the study. The compounds under study were dosed orally (20 mg and 5 mg/kg) to each of 8 mice. 30 minutes later a blood sample ([…]) was obtained from the tail for the analysis of blood glucose. Immediately after taking this blood sample, each mouse was given a glucose load (1 g/kg body weight sub-cutaneously). Blood samples were then obtained from each mouse at 30 minute intervals for 120 minutes.
Compounds that produced a significant (P<0.05) reduction of blood glucose, compared with control mice given water, at any time interval were considered active. The area under the blood glucose curve over the 2 hour period after giving the glucose load was calculated for each compound and compared with the value for control animals. Thus a compound would give a 100% reduction in the area under the blood glucose curve if the blood glucose was maintained at the same level as in untreated fasted animals. Reduction in the glucose curve of more than 100% indicate that a compound, in spite of being given a glucose load, maintained blood glucose levels below that found in control fasted mice.

genetically obese mice = assay: carcass lipid of genetically obese mice after daily oral dosing for 28 days (anti-obesity); format: in vivo, mouse (genetically obese); conditions: for g - lipid per mouse, Treated: daily for 28 days; for anti-obesity activity (in words): general statement, no dose given
Method: (i) The compounds and a comparison compound (salbutamol) were dosed daily in water or carboxymethylcellulose suspension to genetically obese mice by oral gavage for 28 days. At the end of that time the carcass composition was determined.

[1] = test system: 5-hydroxytryptamine-induced bronchoconstriction; assay: bronchodilator potency in anaesthetised artificially respired guinea pig (Konzett-Rossler preparation); format: in vivo; conditions: inhibition of 5-hydroxytryptamine-induced bronchoconstriction
CFLP mice = assay: acute toxicity, single lethal dose; format: in vivo; conditions: po
Excerpt: Other compounds of the invention have similar low toxicities.

[2] = relative potency / activity (test not specified)
[3] = 5 mg/kg po, 30 min before glucose load 1 g/kg sc, 2 hour period, versus control mice

SMILES	inhibition in vivo at 5 mg/kg (blood glucose; [3]) [%]	anti-hyperglycaemic activity (in words) (blood glucose)	anti-obesity activity (in words) (genetically obese mice)	relative potency / activity (in words) [2]	further results
COC(=O)c1ccc(CC(C)NCC(O)c2ccc(O)c(CO)c2)cc1 (stereo not drawn) [Example 1]	157	particularly worthy of mention in view of their anti-hyperglycaemic activity	particularly worthy of mention in view of their anti-obesity activity	–	g - lipid per mouse, Treated (genetically obese mice; 8 mg/kg po, control 23.3 ± 0.7): 20.8 ± 0.7 g; bronchodilator potency relative to salbutamol [1]: one twelfth as potent as salbutamol; single lethal dose (CFLP mice): > 900 mg/kg
COC(=O)c1ccc(CC(C)NCC(O)c2ccccc2)cc1 (stereo not drawn) [Example 59 (mp 83°-4°), N-[2-(4-carbomethoxyphenyl)-1-methylethyl]-2-hydroxy-2-phenylethanamine]	–	–	–	more potent diastereoisomer	–
COC(=O)c1ccc(CC(C)NCC(O)c2ccc(O)c(CO)c2)cc1 (stereo not drawn) [21 (higher melting), N-[2-(4-carbomethoxyphenyl)-1-methylethyl]-2-hydroxy-2-(4-hydroxy-3-hydroxymethylphenyl) ethanamine]	–	particularly worthy of mention in view of their anti-hyperglycaemic activity	particularly worthy of mention in view of their anti-obesity activity	more potent diastereoisomer	–
COC(=O)c1ccc(CC(C)NCC(O)c2ccccc2Cl)cc1 (stereo not drawn) [Example 28, N-(2-[4-Carbomethoxyphenyl]-1-methylethyl)-2-(2-chlorophenyl)-2-hydroxyethanamine]	37	–	–	–	g - lipid per mouse, Treated (genetically obese mice; 19 mg/kg po, control 17.0 ± 0.67): 14.9 ± 0.37 g
COC(=O)c1ccc(CC(C)NCC(O)c2ccc(O)c(CO)c2)cc1 (stereo not drawn) [21 (mp 140.5-143.5°), N-[2-(4-carbomethoxyphenyl)-1-methylethyl]-2-hydroxy-2-(4-hydroxy-3-hydroxymethylphenyl) ethanamine]	–	–	–	–	Reduction in area under blood glucose curve (%) (blood glucose; [3]): 153%; g - lipid per mouse, Treated (genetically obese mice; 10 mg/kg po, control 18.3 ± 0.6 (Ex. 7), 16.5 ± 0.7 (Ex. 16, 21)): 12.7 ± 0.8 g
COC(=O)c1ccc(CC(C)NCC(O)c2ccc(O)c(CO)c2)c(OC)c1 (stereo not drawn) [Example 12, N-[2-(4-Carbomethoxy-2-methoxyphenyl)-1-methylethyl]-2-hydroxy-2-(4-hydroxy-3-hydroxymethylphenyl)ethanamine]	168	particularly worthy of mention in view of their anti-hyperglycaemic activity	particularly worthy of mention in view of their anti-obesity activity	–	g - lipid per mouse, Treated (genetically obese mice; 11 mg/kg po, control 18.9 ± 0.66 (Ex. 12), 17.0 ± 0.67 (Ex. 17)): 16.2 ± 0.42 g

Reference: patent publication US4478849A, “Secondary amines, their preparation and use in pharmaceutical compositions” (Beecham Group Limited, priority 1978, dated 1984)
